Results from patent US10174083B2, “Aza-amino acid collagen compounds” (The Trustees of the University of Pennsylvania, priority 2016, dated 2019).

Test: Triple helix self-assembly by CD spectroscopy
Format: physicochemical
Description: Circular dichroism (CD) spectroscopy was used to evaluate self-assembly of the triple helix for each of our collagen model peptides. […] The data from CD thermal denaturation experiments were fitted to a two-state model, as previously described.
Purified peptides were incubated in PBS buffer for at least 24 hours. […] The data from CD thermal denaturation experiments were fitted to a two-state model as previously described.^12,13 The melting temperatures (Tm), at which 50% of the triple helix unfolds, are listed next to the peptides in FIG. 11.
Resulting peptide 5 was purified by HPLC and incubated at a concentration of 0.2 mM in PBS buffer (pH 7) for 24 h.
Multiple aza-Proline residues: Finally, we determined the number of stereodynamic center (i.e., AzProHypGly trimer) that can be incorporated into a collagen model peptide without perturbing the triple-helix formation.

(GPO)4
triple helix formation / self-assembly: does not
